# Source: US20070178436A1, “Method of inactivating virus in circular blood and its applications in treating viral diseases” (Beijing Jingjing Medical Equipment CO., Ltd., priority 2003, published 2007)
# Where two headings read alike, the source gives them in different places.
# Key:
# [1] = test system: VSV (vesicular stomatitis virus); type: cell-based
# Sindbis virus (SV) = type: cell-based
# VSV = type: cell-based, vesicular stomatitis virus; details: for residual virus VSV: 1500 ml plasma, bag with three pressed folded lines
# Sindbis = type: cell-based, Sindbis virus
# [2] = Impact on the pH value of whole blood; type: physicochemical; details: for pH value in whole blood: 60 minutes of circulatory processing
# clotting factor IX = test: Impact on the activity of clotting factor IX (detection kit); details: for Activity of factor IX (%): 60 minutes of circulatory processing
# clotting factor VIII = test: Impact on the activity of clotting factor VIII (detection kit); details: 60-minute circulatory processing
# complement C3 = test: Impact on the content of complement C3 (single-diffusion plate); details: 60 minutes of circulatory processing
# [3] = Impact on the content of Inorganic Salt (automatic biochemical analyzer); details: 60 minutes of circulatory processing
# [4] = test system: clotting factors of plasma; test: Clotting factors before and after processing, automated coagulation analyzer; details: 60 minutes of circulatory processing
# [5] = Impact on the content of the plasma protein (automatic biochemical analyzer); details: 60 minutes of circulatory processing
compound,measurement,setting,value
CN(C)c1ccc2nc3ccc(=[N+](C)C)cc-3sc2c1 [methylene blue],virus titer left (VSV),"[1]; Volume of blood 1000 ml, circulatory time 60 mins",≦−0.5 lg TCID50
same,virus titer left (VSV),"[1]; Volume of blood 2000 ml, circulatory time 120 mins",≦−0.5 lg TCID50
same,virus titer left Sindbis,Sindbis virus (SV),≦−0.05 lg TCID50
same,residual virus VSV,"VSV; Illumination time 1 h, 50 ml/min",2.63 Lg TCID50
same,residual virus VSV,"VSV; Illumination time 2 h, 50 ml/min",−0.13 Lg TCID50
same,residual virus VSV,"VSV; Illumination time 4 h, 50 ml/min",≦−0.50 Lg TCID50
same,reduction of virus titer VSV,"VSV; Simulation 1, 1500 ml plasma, 50 ml/min",over 5.0 Lg TCID50
same,virus liter left VSV,"VSV; illumination path 2.0 m, illumination time 26.0 sec, 50 ml/min",≦−0.5 Lg TCID50
same,VSV illuminated (titer reduction),"VSV; illumination path 2 meter, 26 seconds, 50 ml/min",more than 5 LgTCID50
same,virus liter left VSV,"VSV; illumination path 2.5 m, illumination time 32.5 sec, 50 ml/min",≦−0.5 Lg TCID50
same,virus liter left VSV,"VSV; illumination path 3.0 m, illumination time 39.0 sec, 50 ml/min",≦−0.5 Lg TCID50
same,virus liter left VSV,"VSV; illumination path 3.5 m, illumination time 45.5 sec, 50 ml/min",≦−0.5 Lg TCID50
same,virus liter left VSV,"VSV; illumination path 4.0 m, illumination time 52.0 sec, 50 ml/min",≦−0.5 Lg TCID50
same,virus titer left (VSV),"VSV; standard 15 cm bag with five pressed folded lines, plasma flowing speed 50",≦−0.50 Lg TCID50
same,virus titer left (VSV),"VSV; standard 15 cm bag with five pressed folded lines, plasma flowing speed 80",0.13 Lg TCID50
same,virus titer left (VSV),"VSV; standard 15 cm bag with three pressed folded lines, plasma flowing speed 50",−0.25 Lg TCID50
same,virus titer left (VSV),"VSV; standard 15 cm bag with three pressed folded lines, plasma flowing speed 80",1.50 Lg TCID50
same,virus titer left (VSV),"VSV; standard 15 cm cut-through plasma bag, plasma flowing speed 50",4.25 Lg TCID50
same,virus titer left (VSV),"VSV; standard 15 cm cut-through plasma bag, plasma flowing speed 80",5.13 Lg TCID50
same,Sindbis virus illuminated (titer reduction),Sindbis,more than 5 LgTCID50
same,reduction of virus titer Sindbis,Sindbis,over 5.0 Lg TCID50
same,virus liter left Sindbis,Sindbis,≦−0.5 Lg TCID50
same,pH value in whole blood,[2]; batch I,7.35
same,pH value in whole blood,[2]; batch II,7.38
same,pH value in whole blood,[2]; batch III,7.36
same,change on the pH value of the whole blood,[2]; processing method of the invention,does not cause any change on the pH value
same,range of decrease of the activity of clotting factor IX,clotting factor IX; 60-minute circulatory processing,about 10%
same,Activity of factor IX (%),clotting factor IX; batch I,106.1%
same,Activity of factor IX (%),clotting factor IX; batch II,125.2%
same,Activity of factor IX (%),clotting factor IX; batch III,89.4%
same,range of decrease of the activity of clotting factor VIII,clotting factor VIII,less than 20%
same,reduction of the content of the complement C3 compared to a reference,complement C3,about 5%
same,content of the complement C3,complement C3; batch I,5.64 mg/mL
same,content of the complement C3,complement C3; batch II,5.43 mg/mL
same,content of the complement C3,complement C3; batch III,5.61 mg/mL
same,Ca content,[3],1.57 mM/l
same,Cho content,[3],3.82 mM/l
same,Cl content,[3],58.7 mM/l
same,K content,[3],3.22 mM/l
same,Mg content,[3],0.67 mM/l
same,Na content,[3],135.1 mM/l
same,P content,[3],1.19 mM/l
same,APTT clotting time,[4],74.0 ″
same,Clotting factor II clotting time,[4],25.0 ″
same,Clotting factor IX clotting time,[4],66.7 ″
same,Clotting factor V clotting time,[4],31.8 ″
same,Clotting factor VII clotting time,[4],26.8 ″
same,Clotting factor VIII clotting time,[4],83.6 ″
same,Clotting factor X clotting time,[4],32.6 ″
same,Clotting factor XI clotting time,[4],82.6 ″
same,Clotting factor XII clotting time,[4],70.2 ″
same,PT clotting time,[4],19.6 ″
same,APTT (reduced),[4]; versus control plasma,17.5%
same,Clotting factor II (reduced),[4]; versus control plasma,1.6%
same,Clotting factor IX (reduced),[4]; versus control plasma,4.9%
same,Clotting factor V (reduced),[4]; versus control plasma,8.9%
same,Clotting factor VII (reduced),[4]; versus control plasma,7.2%
same,Clotting factor VIII (reduced),[4]; versus control plasma,7.2%
same,Clotting factor XI (reduced),[4]; versus control plasma,6.7%
same,Clotting factor XII (reduced),[4]; versus control plasma,3.7%
same,PT (reduced),[4]; versus control plasma,31.5%
same,Albumin content,[5],36.1 g/L
same,Glucose content,[5],21.2 mM/l
same,Total protein content,[5],58.8 g/L
same,triglyceride content,[5],1.62 mM/l
